Laboratory results as given in BindingDB's records for doi:10.1124/jpet.103.064907 (Abbott Laboratories, 2004).

These compounds were tested against T1, P2X purinoceptor 3 (Homo sapiens, UniProt P56373).
T1 sequence (P56373 whole entry): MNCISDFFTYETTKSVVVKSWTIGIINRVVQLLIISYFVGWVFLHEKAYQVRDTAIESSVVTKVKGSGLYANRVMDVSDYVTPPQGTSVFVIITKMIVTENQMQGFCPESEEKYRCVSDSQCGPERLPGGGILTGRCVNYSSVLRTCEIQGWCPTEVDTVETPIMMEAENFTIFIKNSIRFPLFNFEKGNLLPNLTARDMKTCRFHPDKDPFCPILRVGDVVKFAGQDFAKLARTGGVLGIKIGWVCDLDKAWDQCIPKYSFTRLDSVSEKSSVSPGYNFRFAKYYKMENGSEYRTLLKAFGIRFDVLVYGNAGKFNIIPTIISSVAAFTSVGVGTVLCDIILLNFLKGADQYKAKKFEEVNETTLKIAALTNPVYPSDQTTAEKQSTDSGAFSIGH

Compound | Ki [µM]
Nc1ncnc2c1ncn2[C@@H]1O[C@H](COP(=O)(O)OP(=O)(O)OP(=O)(O)O)[C@@H](O)[C@H]1O | 0.0146
Nc1ncnc2c1ncn2[C@H]1C[C@H](O)[C@@H](COP(=O)(O)OP(=O)(O)OP(=O)(O)O)O1 | 0.18
Nc1c(S(=O)(=O)O)cc(Nc2ccc(Nc3nc(Cl)nc(Nc4ccccc4S(=O)(=O)O)n3)c(S(=O)(=O)O)c2)c2c1C(=O)c1ccccc1C2=O | 2.53
Nc1ncnc2c1ncn2[C@H]1CC[C@@H](COP(=O)(O)OP(=O)(O)OP(=O)(O)O)O1 [2',3'-Dideoxyadenosine Triphosphate (Ddatp)] | 0.406
Nc1ncnc2c1ncn2[C@@H]1O[C@H](COP(=O)(O)CP(=O)(O)OP(=O)(O)O)[C@@H](O)[C@H]1O [({[({[5-(6-amino-9H-purin-9-yl)-3,4-dihydroxyoxolan-2-yl]methoxy}(hydroxy)phosphoryl)methyl](hydroxy)phosphoryl}oxy)phosphonic acid] | 0.009
Nc1ncnc2c1ncn2[C@@H]1O[C@H](COP(=O)(O)OP(=O)(O)S)[C@@H](O)[C@H]1O (some centres undefined) [CAS_123848] | 0.297
Nc1ncnc2c1ncn2[C@@H]1O[C@H](CO[P@](=O)(O)O[P@](=O)(O)OC[C@H]2O[C@@H](n3cnc4c(N)ncnc43)[C@H](O)[C@@H]2O)[C@@H](O)[C@H]1O [NSC_0] | > 10
Nc1ncnc2c1ncn2C1OC(COP(=O)(O)OP(=O)(O)OP(=O)(O)OP(=O)(O)OP(=O)(O)OP(=O)(O)OCC2OC(n3cnc4c(N)ncnc43)C(O)C2O)C(O)C1O (centres undefined) [NSC_123694] | 0.0048
Nc1ncnc2c1ncn2C1OC(COP(=O)(O)OP(=O)(O)OP(=O)(O)OP(=O)(O)OP(=O)(O)OCC2OC(n3cnc4c(N)ncnc43)C(O)C2O)C(O)C1O (centres undefined) [NSC_440210] | 0.0104
Nc1ncnc2c1ncn2C1OC(COP(=O)(O)OP(=O)(O)OP(O)(O)=S)C(O)C1O (centres undefined) [NSC_440317] | 0.0403
Nc1ncnc2c1ncn2[C@@H]1O[C@H](COP(=O)(O)OP(=O)(O)CP(=O)(O)O)[C@@H](O)[C@H]1O [adenylylmethylenediphosphonate] | 0.387
Nc1ncnc2c1ncn2[C@@H]1O[C@H](COP(=O)(O)CP(=O)(O)O)[C@@H](O)[C@H]1O [alpha, beta-methyleneadenosine 5 -diphosphate] | > 10

Continued, values first:

Ki [µM] | Compound
2.61 | O=c1ccn([C@@H]2O[C@H](COP(=O)(O)OP(=O)(O)OP(=O)(O)O)[C@@H](O)[C@H]2O)c(=O)[nH]1 [({[({[5-(2,4-dioxo-1,2,3,4-tetrahydropyrimidin-1-yl)-3,4-dihydroxyoxolan-2-yl]methoxy}(hydroxy)phosphoryl)oxy](hydroxy)phosphoryl}oxy)phosphonic acid]
0.452 | Nc1ncnc2c1ncn2[C@@H]1O[C@H](COP(=O)(O)OP(=O)(O)O)[C@@H](O)[C@H]1O [ADP]
0.0082 | CSc1nc(N)c2ncn([C@@H]3O[C@H](COP(=O)(O)OP(=O)(O)OP(=O)(O)O)[C@@H](O)[C@H]3O)c2n1 [ATP, 2-meS]
1.67 | Nc1ncnc2c1ncn2C1OC(COP(=O)(O)OP(=O)(O)OP(=O)(O)OC2C(CO)OC(n3cnc4c(N)ncnc43)C2O)C(O)C1O (centres undefined) [CAS_3035419]
> 10 | CN(C(Cc1ccc(OS(=O)(=O)c2cccc3cnccc23)cc1)C(=O)N1CCN(c2ccccc2)CC1)S(=O)(=O)c1cccc2cnccc12 (centres undefined) [KN-62]
0.0473 | Nc1ncnc2c1ncn2[C@@H]1O[C@H](COP(=O)(O)OP(=O)(O)OP(=O)(O)O)C[C@H]1O [NSC_0]
0.0077 | Nc1ncnc2c1ncn2[C@@H]1O[C@H](COP(=O)(O)OP(=O)(O)OP(=O)(O)O)[C@@H](OC(=O)c2ccc(C(=O)c3ccccc3)cc2)[C@H]1O [NSC_0]
